Experimental data taken from EP4810052A2, “HCRHR2 SELECTIVE POLYPEPTIDES” (Gubra A/S, priority 2023, dated 2026).
Starred links: 1 amine or outer side, 2 acyl side, 3 side chain; linkers in the order of their positions; H or OH if unused. Non-standard residues stand in square brackets, D forms with d. Residues, ends and D or L forms follow the SMILES beside them. Groups on a side chain read outwards from the residue. *: point of attachment. C20 diacid = O=C(O)CCCCCCCCCCCCCCCCCCC(=O)*; γGlu = O=C(O)[C@H](CCC(=O)[*:2])N[*:1]; Nle = CCCC[C@H](N)C(=O)O; AEEA = NCCOCCOCC(=O)O

Columns and labels:
hCRHR2 = molecular target: T1, hCRHR2 (Homo sapiens, UniProt Q13324); test: HTRF cAMP assay, determination of hCRHR2 potency (peptide libraries 5 conc., purified peptides 11 conc.); type: cell-based; conditions: library peptides; matched molecular pairs L vs Nle in position X^38; read-out: Potency hCRHR2 pEC50 (converted)
T1 sequence (Q13324 1-411): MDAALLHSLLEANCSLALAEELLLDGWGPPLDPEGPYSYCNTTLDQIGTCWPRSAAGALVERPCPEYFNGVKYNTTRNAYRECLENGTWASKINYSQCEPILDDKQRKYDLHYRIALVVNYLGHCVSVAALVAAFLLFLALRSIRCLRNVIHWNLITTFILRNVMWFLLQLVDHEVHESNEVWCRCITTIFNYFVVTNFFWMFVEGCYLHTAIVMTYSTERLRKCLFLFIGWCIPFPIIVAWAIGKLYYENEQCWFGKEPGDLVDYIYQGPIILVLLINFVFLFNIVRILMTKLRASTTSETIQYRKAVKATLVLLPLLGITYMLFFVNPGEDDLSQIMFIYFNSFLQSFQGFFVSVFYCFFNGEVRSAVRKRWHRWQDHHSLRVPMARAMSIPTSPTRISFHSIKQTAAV
Procedure, shortened: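 Frozen stocks of hCRHR2-expressing CHO-K1 cells, thawed just before testing, received peptide agonists in suspension; cAMP quantified by competitive HTRF immunoassay, with curves fitted by nonlinear regression (variable slope) for EC50.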

hCRHR1 = molecular target: T2, hCRHR1 (Homo sapiens, UniProt P34998); test: HTRF cAMP assay, determination of hCRHR1 potency (peptide libraries 5 conc., purified peptides 11 conc.); type: cell-based; conditions: library peptides; matched molecular pairs L vs Nle in position X^38; read-out: Potency hCRHR1 pEC50 (converted)
T2 sequence (P34998 24-415): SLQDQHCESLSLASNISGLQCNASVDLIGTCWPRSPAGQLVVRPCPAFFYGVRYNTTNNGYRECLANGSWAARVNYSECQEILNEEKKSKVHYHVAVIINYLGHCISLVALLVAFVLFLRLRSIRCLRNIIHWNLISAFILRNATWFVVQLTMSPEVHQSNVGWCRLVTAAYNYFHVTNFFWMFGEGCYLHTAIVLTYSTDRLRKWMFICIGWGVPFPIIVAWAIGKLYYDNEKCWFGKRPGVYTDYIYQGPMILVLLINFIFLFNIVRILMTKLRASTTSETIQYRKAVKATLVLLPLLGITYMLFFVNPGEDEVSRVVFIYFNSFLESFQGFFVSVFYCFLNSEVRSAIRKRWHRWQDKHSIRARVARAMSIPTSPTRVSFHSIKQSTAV
Procedure, shortened: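 Cellular cAMP was read by time-resolved FRET between d2-labelled cAMP and cryptate anti-cAMP antibody. The cells were freshly thawed suspension CHO-K1 cells stably expressing human CRHR1.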

Structure (SMILES)	EC50 (hCRHR2) [nM]	EC50 (hCRHR1) [nM]
CCCC[C@H](NC(=O)[C@@H](NC(=O)[C@H](CCC(=O)O)NC(=O)[C@H](C)NC(=O)[C@H](CC(N)=O)NC(=O)[C@@H](NC(=O)[C@H](CCCCNC(=O)COCCOCCNC(=O)COCCOCCNC(=O)CC[C@H](NC(=O)CC[C@H](NC(=O)CCCCCCCCCCCCCCCCCCC(=O)O)C(=O)O)C(=O)O)NC(=O)[C@H](C)NC(=O)[C@H](CCC(N)=O)NC(=O)[C@H](CCC(=O)O)NC(=O)[C@H](CCCNC(=N)N)NC(=O)[C@H](CCC(N)=O)NC(=O)[C@H](C)NC(=O)[C@H](CCCNC(=N)N)NC(=O)[C@H](C)NC(=O)[C@H](CCCNC(=N)N)NC(=O)[C@H](C)NC(=O)[C@H](CCC(N)=O)NC(=O)[C@H](CCC(=O)O)NC(=O)[C@H](CC(C)C)NC(=O)[C@H](CC(C)C)NC(=O)[C@@H](NC(=O)[C@H](CCC(N)=O)NC(=O)[C@H](CC(C)C)NC(=O)[C@H](CC(C)C)NC(=O)CNC(=O)[C@@H](NC(=O)[C@@H]1CCCN1C(=O)[C@@H](NC(=O)[C@H](CC(=O)O)NC(=O)[C@H](CC(C)C)NC(=O)[C@H](CO)NC(=O)[C@H](CC(C)C)NC(=O)[C@@H](NC(=O)[C@@H](N)[C@@H](C)CC)C(C)C)C(C)C)[C@@H](C)CC)[C@@H](C)CC)[C@@H](C)O)[C@@H](C)CC)C(=O)N[C@@H](C)C(=O)N[C@@H](CCC(=O)O)C(=O)N[C@H](C(N)=O)C(C)C [compound 57] (H-IVLSLDVPIGLLQILLEQARARAQREQAK([AEEA-AEEA-γGlu-γGlu-C20 diacid])TNAEI[Nle]AEV-NH2)	0.126	63.1
CC[C@H](C)[C@H](N)C(=O)N[C@H](C(=O)N[C@@H](CC(C)C)C(=O)N[C@@H](CO)C(=O)N[C@@H](CC(C)C)C(=O)N[C@@H](CC(=O)O)C(=O)N[C@H](C(=O)N1CCC[C@H]1C(=O)N[C@H](C(=O)NCC(=O)N[C@@H](CC(C)C)C(=O)N[C@@H](CC(C)C)C(=O)N[C@@H](CCC(N)=O)C(=O)N[C@H](C(=O)N[C@@H](CC(C)C)C(=O)N[C@@H](CC(C)C)C(=O)N[C@@H](CCC(=O)O)C(=O)N[C@@H](CCC(N)=O)C(=O)N[C@@H](C)C(=O)N[C@@H](CCCNC(=N)N)C(=O)N[C@@H](C)C(=O)N[C@@H](CCC(=O)O)C(=O)N[C@@H](C)C(=O)N[C@@H](CC(C)C)C(=O)N[C@@H](CCCNC(=N)N)C(=O)N[C@@H](CCC(N)=O)C(=O)N[C@@H](CCC(N)=O)C(=O)N[C@@H](C)C(=O)N[C@@H](CCCCNC(=O)COCCOCCNC(=O)COCCOCCNC(=O)CC[C@H](NC(=O)CC[C@H](NC(=O)CCCCCCCCCCCCCCCCCCC(=O)O)C(=O)O)C(=O)O)C(=O)N[C@H](C(=O)N[C@@H](CC(N)=O)C(=O)N[C@@H](C)C(=O)N[C@@H](CCC(=O)O)C(=O)N[C@H](C(=O)N[C@@H](CC(C)C)C(=O)N[C@@H](C)C(=O)N[C@@H](CCC(=O)O)C(=O)N[C@H](C(N)=O)C(C)C)[C@@H](C)CC)[C@@H](C)O)[C@@H](C)CC)[C@@H](C)CC)C(C)C)C(C)C [compound 58] (H-IVLSLDVPIGLLQILLEQARAEALRQQAK([AEEA-AEEA-γGlu-γGlu-C20 diacid])TNAEILAEV-NH2)	0.316	100
CCCC[C@H](NC(=O)[C@@H](NC(=O)[C@H](CCC(=O)O)NC(=O)[C@H](C)NC(=O)[C@H](CC(N)=O)NC(=O)[C@@H](NC(=O)[C@H](CCCCNC(=O)COCCOCCNC(=O)COCCOCCNC(=O)CC[C@H](NC(=O)CC[C@H](NC(=O)CCCCCCCCCCCCCCCCCCC(=O)O)C(=O)O)C(=O)O)NC(=O)[C@H](C)NC(=O)[C@H](CCC(N)=O)NC(=O)[C@H](CCC(N)=O)NC(=O)[C@H](CCCNC(=N)N)NC(=O)[C@H](CC(C)C)NC(=O)[C@H](C)NC(=O)[C@H](CCC(=O)O)NC(=O)[C@H](C)NC(=O)[C@H](CCCNC(=N)N)NC(=O)[C@H](C)NC(=O)[C@H](CCC(N)=O)NC(=O)[C@H](CCC(=O)O)NC(=O)[C@H](CC(C)C)NC(=O)[C@H](CC(C)C)NC(=O)[C@@H](NC(=O)[C@H](CCC(N)=O)NC(=O)[C@H](CC(C)C)NC(=O)[C@H](CC(C)C)NC(=O)CNC(=O)[C@@H](NC(=O)[C@@H]1CCCN1C(=O)[C@@H](NC(=O)[C@H](CC(=O)O)NC(=O)[C@H](CC(C)C)NC(=O)[C@H](CO)NC(=O)[C@H](CC(C)C)NC(=O)[C@@H](NC(=O)[C@@H](N)[C@@H](C)CC)C(C)C)C(C)C)[C@@H](C)CC)[C@@H](C)CC)[C@@H](C)O)[C@@H](C)CC)C(=O)N[C@@H](C)C(=O)N[C@@H](CCC(=O)O)C(=O)N[C@H](C(N)=O)C(C)C [compound 59] (H-IVLSLDVPIGLLQILLEQARAEALRQQAK([AEEA-AEEA-γGlu-γGlu-C20 diacid])TNAEI[Nle]AEV-NH2)	0.158	5.01
CC[C@H](C)[C@H](N)C(=O)N[C@H](C(=O)N[C@@H](CC(C)C)C(=O)N[C@@H](CO)C(=O)N[C@@H](CC(C)C)C(=O)N[C@@H](CC(=O)O)C(=O)N[C@H](C(=O)N1CCC[C@H]1C(=O)N[C@H](C(=O)NCC(=O)N[C@@H](CC(C)C)C(=O)N[C@@H](CC(C)C)C(=O)N[C@@H](CCC(N)=O)C(=O)N[C@H](C(=O)N[C@@H](CC(C)C)C(=O)N[C@@H](CC(C)C)C(=O)N[C@@H](CCC(=O)O)C(=O)N[C@@H](CCC(N)=O)C(=O)N[C@@H](C)C(=O)N[C@@H](CCCNC(=N)N)C(=O)N[C@@H](C)C(=O)N[C@@H](CCCNC(=N)N)C(=O)N[C@@H](CO)C(=O)N[C@@H](C)C(=O)N[C@@H](CCCNC(=N)N)C(=O)N[C@@H](CCC(=O)O)C(=O)N[C@@H](CCC(N)=O)C(=O)N[C@@H](C)C(=O)N[C@@H](CCCCNC(=O)COCCOCCNC(=O)COCCOCCNC(=O)CC[C@H](NC(=O)CC[C@H](NC(=O)CCCCCCCCCCCCCCCCCCC(=O)O)C(=O)O)C(=O)O)C(=O)N[C@H](C(=O)N[C@@H](CC(N)=O)C(=O)N[C@@H](C)C(=O)N[C@@H](CCC(=O)O)C(=O)N[C@H](C(=O)N[C@@H](CC(C)C)C(=O)N[C@@H](C)C(=O)N[C@@H](CCC(=O)O)C(=O)N[C@H](C(N)=O)C(C)C)[C@@H](C)CC)[C@@H](C)O)[C@@H](C)CC)[C@@H](C)CC)C(C)C)C(C)C [compound 60] (H-IVLSLDVPIGLLQILLEQARARSAREQAK([AEEA-AEEA-γGlu-γGlu-C20 diacid])TNAEILAEV-NH2)	0.501	25100
CCCC[C@H](NC(=O)[C@@H](NC(=O)[C@H](CCC(=O)O)NC(=O)[C@H](C)NC(=O)[C@H](CC(N)=O)NC(=O)[C@@H](NC(=O)[C@H](CCCCNC(=O)COCCOCCNC(=O)COCCOCCNC(=O)CC[C@H](NC(=O)CC[C@H](NC(=O)CCCCCCCCCCCCCCCCCCC(=O)O)C(=O)O)C(=O)O)NC(=O)[C@H](C)NC(=O)[C@H](CCC(N)=O)NC(=O)[C@H](CCC(=O)O)NC(=O)[C@H](CCCNC(=N)N)NC(=O)[C@H](C)NC(=O)[C@H](CO)NC(=O)[C@H](CCCNC(=N)N)NC(=O)[C@H](C)NC(=O)[C@H](CCCNC(=N)N)NC(=O)[C@H](C)NC(=O)[C@H](CCC(N)=O)NC(=O)[C@H](CCC(=O)O)NC(=O)[C@H](CC(C)C)NC(=O)[C@H](CC(C)C)NC(=O)[C@@H](NC(=O)[C@H](CCC(N)=O)NC(=O)[C@H](CC(C)C)NC(=O)[C@H](CC(C)C)NC(=O)CNC(=O)[C@@H](NC(=O)[C@@H]1CCCN1C(=O)[C@@H](NC(=O)[C@H](CC(=O)O)NC(=O)[C@H](CC(C)C)NC(=O)[C@H](CO)NC(=O)[C@H](CC(C)C)NC(=O)[C@@H](NC(=O)[C@@H](N)[C@@H](C)CC)C(C)C)C(C)C)[C@@H](C)CC)[C@@H](C)CC)[C@@H](C)O)[C@@H](C)CC)C(=O)N[C@@H](C)C(=O)N[C@@H](CCC(=O)O)C(=O)N[C@H](C(N)=O)C(C)C [compound 61] (H-IVLSLDVPIGLLQILLEQARARSAREQAK([AEEA-AEEA-γGlu-γGlu-C20 diacid])TNAEI[Nle]AEV-NH2)	0.1	1260
